Laboratory results from patent US20090215748A1, “FXR agonists for treating vitamin D associated diseases” (Wyeth, priority 2007, published 2009).

Tests used:
Type in all cases: in vivo
CYP27B1 [1] = test: CYP27B1 gene expression in chow fed KKAy mice, 7 day treatment (FIG. 4)
CYP27B1 [2] = test: CYP27B1 expression in wild (WT) mice, 7 day treatment (FIG. 1)
renin = test: Renal renin gene expression in KKAy mice, 4 weeks treatment (FIG. 6); details: once a day for 4 weeks
Text: Vitamin D and its receptor vitamin D receptor (VDR) may regulate the cardiovascular system. VDR deficient and CYP27B1 deficient mice have increased blood pressure and left ventricle hypertrophy.

CYP27B1 [3] = test: Gene profiling of kidneys isolated from KKAy mice treated with Compound A
Procedure: To examine the role of FXR in the kidney, gene-profiling experiments were performed using kidneys isolated from KKAy mice treated with Compound A. Genes involved in vitamin D synthesis, calcium mobilization, amino acid metabolism, inflammation, oxidative phosphorylation, and nitric oxide production were regulated by Compound A treatment. […] The CYP27B1 gene, expressed in the proximal tubes of the kidney, encodes 25-hydroxyvitamin D3 1α-hydroxylase, which generates the active form of vitamin D, 1α,25-dihydroxyvitamin D3, from a proform of vitamin D, 25 hydroxyvitamin D3.

KKAy mice [4] = test: Hepatic lipid metabolism and deposition in the KKAy model of diabetic nephropathy
Text: The KKAy mice are diabetic mice characterized by hyperglycemia and insulin resistance and are renally impaired with nodular glomerulosclerosis, mesangial proliferation, and abuminuria that increases with age or with a high cholesterol diet. Abnormal lipid metabolism and renal lipid accumulation may contribute to diabetic nephropathy. Administration of FXR agonist, Compound A (isopropyl 3-(3,4-difluorobenzoyl)-1,1-dimethyl-1,2,3,6-tetrahydroazepino[4,5-b]indole-5-carboxylate) improves hepatic lipid metabolism and deposition in the KKAy model of diabetic nephropathy.

CYP27B1 [5] = test: CYP27B1 expression in FXR deficient (FXR KO) mice, 7 day treatment (FIG. 1)
KKAy mice [6] = test: Serum creatinine level in KKAy mice, 7 days oral dosing (FIG. 3); details: orally once a day for seven days, not statistically significant
OVX rats = test: OVX-induced bone loss in OVX rats; details: 3 and 30 mg/kg, 6-10 weeks of treatment
Text: OVX rats are rats subjected to bilateral ovariectomy, which results in development of osteopenia. Two studies have been conducted to evaluate the effect of one of the FXR agonists disclosed herein, isopropyl 3-(3,4-difluorobenzoyl)-1,1-dimethyl-1,2,3,6-tetrahydroazepino[4,5-b]-indole-5-carboxylate, in OVX rats. […] The exposure level of the compound in bone tissue of the rats was not studied and the EC50 of the compound in bone cells was not studied. Accordingly, the reason for the absence of an observable effect has not been determined.

MMP-14 = MMP-14 gene expression in chow fed KKAy mice, 7 day treatment (FIG. 5)

Structure (SMILES): CC(C)OC(=O)C1=CN(C(=O)c2ccc(F)c(F)c2)CC(C)(C)c2c1[nH]c1ccccc21 [Compound A, isopropyl 3-(3,4-difluorobenzoyl)-1,1-dimethyl-1,2,3,6-tetrahydroazepino[4,5-b]indole-5-carboxylate]
- CYP27B1 gene expression (CYP27B1 [1]): upregulated
- expression of CYP27B1, induction (CYP27B1 [2]): 15 fold
- renal renin gene expression (renin): significant reduction
- CYP27B1 gene expression (CYP27B1 [3]): upregulated
- hepatic lipid metabolism and deposition (KKAy mice [4]): improves
- effect on the expression of CYP27B1 (CYP27B1 [5]): No effect
- reduction in serum creatinine levels (KKAy mice [6]): 20%
- effect on preventing or restoring OVX-induced bone loss (OVX rats): did not show any effect
- MMP-14 gene expression (MMP-14): decreased
